In patent US11725027B2, “Hypersensitive response elicitor-derived peptides and use thereof” (priority 2016, dated 2023):
Marks after values point to notes of the source that are not given here. No end group written: not given here.

Assays:
[1] = 50 mM buffer solutions pH 5.6-8.0, 0.25% Proxel GXL
Description: Stability against chemical degradation was assessed in various pH buffers by creating 0.2% AI solutions of pure, chemically synthesized peptide in deionized water, 0.25% weight to volume of Proxel® GXL (biocide), and 50 millimolar (mM) of nine buffers (separately) as follows: Citrate, pH 5.6, MES pH 6.0, MOPS pH 6.5, Citrate pH 7.2, EDDS pH 7.3, imidazole pH 7.5, EDTA pH 8, Phosphate pH 8, and TES pH 8.

soybean cyst nematodes = assay: Seed coating with peptides compared with chemical nematode agents in soy; type: in vivo, soy (Sheyenne variety)
Description: Additional experiments will be performed to examine the effectiveness of peptide treatment in suppressing the growth of soybean cyst nematodes using one or more of the other peptides in Tables 1 and 2, including, without limitation, P5-21 and P5-25. See Example 8 below.
The effectiveness of peptides was tested in soy (Sheyenne variety) and compared with current anti-nematode chemicals. Briefly, soy seeds were commercially coated with peptide at rates of 10, 30, or 90 ug peptide per seed or with chemical nematicides Avicta Complete, Clariva Complete, Poncho/Votivo, or Velum total. 3 soy seeds were planted in a mixture of topsoil and sand (pasteurized) in a 10 cm diameter pot and were inoculated with 1500 eggs per pot at planting. 10 replicate pots were used per experimental condition. After plants emerged from the soil, the plants were thinned to one plant per pot. Plants were harvested about 45 days after planting. The following measures were taken: (1) Fresh shoot and root weights; (2) Root condition graded 0-10 for the presence of disease; (3) Nematode cysts per plant; (4) Nematode eggs per plant; and optionally (5) Male nematodes. The following values were calculated: eggs per gram of root, cysts per gram of root, and eggs per cyst.

[2] = tested on: Nicotiana tabacum cultivar xanthi plants; assay: Hypersensitive Response (HR) induction in tobacco leaves; type: in vivo; parameters: key to HR: Plants are considered HR-positive (“HR+”) if they exhibit wide-spread macroscopic cell death visible to the naked eye, accompanied by wilting and browning of the affected tissue within 48 hours; Plants are considered HR-negative (“HR−”) if they exhibit no discernible wilting or tissue death observable by naked eye; conditions: tobacco leaf infused with 500, 250, 125, 62.5, 31.25 μg/ml peptide solutions, scored over 48 hours
Text: A property of a peptide to elicit a hypersensitive response, or not, upon infiltration or application of the peptide to plant tissues can be measured by applying the peptide in dry powder form or in solution form to a plant, particularly though not exclusively a plant leaf.
The minimal eliciting sequence derived from was developed based on the sequence of the hrex gene from Xanthomonas campestris pv. pelargonii. A number of truncated and mutated sequences were synthesized and tested for Hypersensitive Response induction (results in Table 4). HR in tobacco was tested as described in Wei, Science 257:85-88 (1992), which is hereby incorporated by reference in its entirety. Briefly, peptides were dissolved at a concentration of 500 μg/ml in aqueous solution. Four serial dilutions were performed with an equal volume of water, yielding peptide samples at 500, 250, 125, 62.5, 31.25 μg/ml peptide solutions. Nicotiana tabacum cultivar xanthi plants were used at 5-7 weeks old (preflowering). Leaves were lightly punctured with a toothpick in a middle leaf panel. Peptide solutions were then infused via needle-less syringe into the wound, filling the panel. Each peptide sample was infused into a leaf of 2 different plants. The leaves were observed and scored over the next 48 hours for withering and browning, lesions typical of programmed cell death. These studies had […] main goals: (1) determine the minimal sequence sufficient for HR elicitation (2) increase the solution stability of the peptides; (3) make disruptive mutations to verify the residues which are most important for HR elicitation; (4) make conservative mutations to identify the degree of specificity for particular amino acids.

[3] = tested on: tobacco mosaic virus (TMV); assay: Induction of resistance to tobacco mosaic virus in tobacco; type: in vivo; conditions: % decline in TMV lesions vs UTC, spray 20 ug/ml
Description: Peptides were tested for the induction of resistance to tobacco mosaic virus (TMV) in tobacco. Briefly, three tobacco plants at 6-8 weeks old were selected per group (samples and controls). The bottom-most leaf of the plant was covered and the plant was sprayed with a solution of water (untreated control—UTC), peptide, or Proact (positive control). The spray was applied until the leaves were fully wetted, indicated by liquid dripping from the leaves. The plants were then allowed to dry and the leaf covering was removed.
Three days post-treatment, the previously-covered leaf and a leaf on the opposite side of the plant were then lightly dusted with diatomaceous earth and 20 ul of a 1.7 ug/ml solution of purified tobacco mosaic virus was applied. The TMV solution was then spread across the leaf surface by lightly rubbing solution and the diatomaceous earth across the surface of the leaves. Two minutes after inoculation, the diatomaceous earth was rinsed off the leaves with water. 3 days after TMV inoculation, the leaves were scored based on the number of TMV lesions observed. The leaf was also scored for signs of the hypersensitive response, including yellowing and wilting of the affected leaves.
Effectiveness described in Table 6 refers to the % decline in TMV lesions on treated vs UTC plants. A reduction of TMV on covered leaves indicates a systemic immune response in the plant while reduction on uncovered leaves indicates a local response. Asterisks indicate that the P-value derived from a T-test was <0.05.

corn = assay: Drought resistance in corn (greenhouse, spray); type: in vivo; conditions: corn under drought
Description: The effectiveness of peptide treatment in reducing drought stress was assessed in corn and soy. 3.5 inch pots were filled with Sunshine #1 soil (SunGro Horticulture), fertilized with a 20-10-20 mixture. The soil was soaked and drained overnight. Seeds (either corn or soy, manually inspected to ensure uniform seed size) were planted at a depth of 1 inch for germination. Plants were grown in a greenhouse under 16 hour light days at >70° F. and 8 hour dark nights at >65° F. Prior to drought conditions, the plants were well-watered.
When the plants reached the V1 stage, plants were culled to achieve a uniform height (abnormally large and small plants were removed). Plants were then randomly assigned to control (spray without peptide) or treatment (spray with peptide) groups and heights were measured. Peptide was made up in a solution of 0.2 ug/ml or 2 ug/ml in distilled water+0.01% Tween-20, and applied as a fine mist from a spray bottle until the solution drips from the leaves. After the peptide solutions were dried, the plants were again randomized in a randomized complete block design. Drought stress was initiated after the peptide treatment. This was caused by maintaining the water level at 25-50% of the maximum capacity for water (capacity was decided as the weight of the pot filled with saturated soil minus the weight of the filled pot prior to adding water).
The drought test phase ended after 2-3 weeks. At that time, the plant height was again measured and the growth rate was calculated as the difference between this and the previously-recorded height. The above-ground part portions of the plants were harvested and weighed. The above-ground portion was also dried in an oven at 70° C. for 72 hours and a dry weight was obtained. All calculations were compared with matched untreated control plants.

[4] = Solution (formulation) stability at 50° C. (HPLC); type: physicochemical; conditions: 50 mM citrate pH 7.2, 0.09% AI, 0.25% Proxel GXL
Description: Peptides solutions were analyzed by HPLC for % loss of the peptide signal over time during incubation at 50° C., relative to the time 0 sample. Peptides were analyzed until the remaining peptide concentration decreased to 80% of original (20% degradation).

[5] = Stability of material bulked with maltodextrin and buffer at room temperature; type: physicochemical; conditions: bulked with maltodextrin and phosphate buffer (pH 8.0) or citrate buffer (pH 7.2), 48 hours
Description: Samples of material P5, P5-21, and P5-25 bulked with maltodextrin and either phosphate buffer (pH 8.0) or citrate buffer (pH 7.2) were tested for stability at room temperature for 48 hours.

| Sequence | solubility [1] | reduction in cysts per gram root (soybean cyst nematodes; 10 ug peptide per seed) | reduction in eggs per gram root (soybean cyst nematodes; 10 ug peptide per seed) | reduction in cysts per gram root (soybean cyst nematodes; 30 ug peptide per seed) | reduction in eggs per gram root (soybean cyst nematodes; 30 ug peptide per seed) | reduction in cysts per gram root (soybean cyst nematodes; 90 ug peptide per seed) | reduction in eggs per gram root (soybean cyst nematodes; 90 ug peptide per seed) | HR [2] | Effectiveness Covered (%) ([3]; covered leaf (systemic response)) | Effectiveness Uncovered (%) ([3]; uncovered leaf (local response)) | drought resistance, experimental results (corn) | Time before 20% degradation [4] | degradation (more than 5% loss) [5] |
| --- | --- | --- | --- | --- | --- | --- | --- | --- | --- | --- | --- | --- | --- |
| QLELLLAFIAAALQQ [Peptide P5-5] | Precipitation |  |  |  |  |  |  |  |  |  |  |  |  |
| SEEEEQLDQLLLAFIAAALQQ [Peptide P5-25] |  | 92% | 94% | 82% | 85% | 91% | 93% | - | 93* % | 91* % | not statistically significant | 53 days | No significant degradation |
